Reference: patent US11505556B2, “Halogenated derivatives of morphinans and uses thereof” (Xalud Therapeutics, Inc., priority 2017, dated 2022)

Tests used:
[1] = tested on: bone fracture pain, paw withdrawal threshold; assay: Mouse bone fracture model, morphine potentiation
Description: Male adult C57BL6 mice, 8-10 weeks old, were anaesthetized with isoflurane mixed with oxygen throughout the surgical procedure. Animals were placed on a thermo-blanket temperature control system. The left knee area was disinfected with povidone/iodine-soaked cotton. A 0.5 cm incision was made on the knee, exposing the front area of the knee. A 27-gauge sterile needle was inserted into the tibial bone medullar canal to secure the fractured bone. The left tibia bone was gently broken using a pair of cushioned pliers. A single dose of antibiotic (Amoxipen 100 mg/kg, IP) was administered for prevention of infection after surgery. The animal was placed in a temperature-controlled recovery chamber until fully awake before being placed in a plastic cage bedded with clean, soft sawdust, with food and water easily accessible. The condition of the animals was closely monitored and recorded. All compounds, dissolved in normal saline, were dosed intraperitoneally in a volume of 5 ml/kg. PWT testing, as described above, was performed at 1, 2, and 4 hours.
In both cases, morphine was dosed at 2 mg/kg IP.

[2] = tested on: CCI neuropathic pain (mechanical allodynia); assay: Rat chronic constriction injury (CCI) neuropathic pain model, SC dosing, von Frey testing (Example 1); assay type: in vivo
Procedure: Pathogen-free adult male Sprague-Dawley rats (300-375 g; Harlan Labs, Madison, Wis.) were used in all experiments. Rats were housed in temperature (23+/−3° C.) and light (12 hour:12 hour, light:dark cycle; lights on at 0700) controlled rooms with standard rodent chow and water available ad libitum.
Chronic Constriction Injury (CCI) model: Neuropathic pain was induced using the CCI model of partial sciatic nerve injury (see, e.g., Bennett and Xie, […]). CCI was performed at the mid-thigh level of the left hindleg as previously described in Milligan, et al., Eur. J. Neuroscience, 20:2294-2302 (2004). In brief, four sterile chromic gut sutures (cuticular 4-0 chromic gut, FS-2; Ethicon, Somerville, N.J., USA) were loosely tied around the gently isolated sciatic nerve. Drug testing was delayed until 10-14 days after surgery to ensure that neuropathic pain was well established prior to the initiation of drug delivery.
XT-203 CCI SC: Rats (10/group) were subjected to CCI neuropathic pain model surgery. After the pain state was established, they were dosed 3× per day for 5 days with XT-203 or a positive control (gabapentin) dose. Behavior testing for pain responses by von Frey testing was used to establish pain thresholds in the affected hind paw. Because dosage was 3×/day, behavior testing was performed after the first and second dose of day 1 dosing (1.1, 1.2) and after the first and second dose of day 5 dosing (5.1, 5.2). […]
Von Frey Test for Mechanical Allodynia: Rats received at least three 60 min habituations to the test environment prior to behavioral testing. Response thresholds to calibrated light pressure stimuli applied to the plantar surface of the paws was measured using the von Frey test. […] Briefly, rats were first assessed for baseline response thresholds (average of three consecutive withdrawal assessments) from each paw at 15 min intervals, and the average response threshold from both feet was calculated. […] Allodynia was assessed pre- and post-drug delivery.

[3] = tested on: Mouse hepatocytes; assay: Hepatocyte elimination of parent compound
[4] = tested on: surgical pain (paw incision), paw withdrawal threshold; assay: Mouse paw incision model, morphine potentiation
Procedure: Manual testing with von Frey hairs was performed at the times indicated in the graphs. The animals were placed in individual Perspex boxes on a raised metal mesh for at least 40 min before the test. A series of graduated von Frey hairs (0.07, 0.16, 0.4, 0.6, and 1.0 g) were applied to the plantar surface of the left paw, in sequence. Each von Frey hair was applied 10 times on a one-sec-on-one-sec-off protocol, with each hair slightly bent. A paw withdrawal upon this hind-paw stimulation for a given von Frey hair registering 5 responses out of 10 trials was recorded the paw withdrawal threshold (PWT). A baseline PWT was determined each day for 3 days before surgery. […] In addition, the PWT was determined before dosing and 1, 2, and 4 hours after dosing.
In both cases, morphine was dosed at 1 mg/kg IP.
Each group had n=10 mice.

[5] = tested on: EAE (multiple sclerosis model) pain; assay: Experimental Autoimmune Encephalomyelitis (EAE) model, mechanical allodynia; assay type: in vivo, rat; conditions: both paws
Description: The Experimental Autoimmune Encephalomyelitis (EAE) Model has been developed as a rat model of multiple sclerosis (Sloane, E. et al. Brain Behav. Immun. 2009, 23, 92-100). The model encompasses the injection of myelin oligodendrocyte glycoprotein (MOG) or similar glycoprotein to establish and antibody reaction that damages spinal nerve fibers leading to a progression of motor and sensory deficits. The rapid progression of deficits can be slowed by reduction of the MOG dose, enabling testing for pain responses prior to the development of hind limb paresis.
Reduced-dose MOG or saline (sham) was administered intradermally at the base of the tail. Mechanical allodynia pain testing was performed on hind left and right paws by application of Semmes-Weinstein (“von Frey”) monofilaments calibrated for different bending forces for 8 seconds to determine the paw-withdrawal threshold. On day 15 post EAE induction, after reduction in the paw-withdrawal threshold (establishment of mechanical allodynia pain), subcutaneous injection of 15 mg/kg XT-203 or saline was administered three times/day for 15 days. Behavioral data were analyzed with two-way ANOVA. For all tests, statistical significance was set to p<0.05 (*).

[6] = in vitro; conditions: mouse, hepatocytes
[7] = in vitro; conditions: human, cultured hepatocytes
[8] = tested on: Sodium channel site 2; assay: Off-target screening; assay type: binding
Description: (§1) In addition to the animal studies presented above in Examples 1-9, the results of in vitro testing of several of the compounds (i.e., XT-203, XT-204, and XT-206 through XT-217) are shown in Table 5 and Table 6. […]. Nine additional compounds had two or fewer off-target hits in the screening. […] These compounds spanned all of the tested N-modification classes. […]. Thus, the medicinal chemistry approach taken in this series of fluorinated compounds can yield low off-target activity and longer metabolic lifetime while preserving TLR4 antagonism. It is appreciated that further development of compounds in this class, using techniques known to those skilled in the art, may yield additional compounds with desirable pharmacologic and toxicologic characteristics.

[9] = biological target: T1, Adrenergic α2A (Homo sapiens, UniProt P08913); assay: Off-target screening; assay type: binding
T1 sequence (P08913 1-465): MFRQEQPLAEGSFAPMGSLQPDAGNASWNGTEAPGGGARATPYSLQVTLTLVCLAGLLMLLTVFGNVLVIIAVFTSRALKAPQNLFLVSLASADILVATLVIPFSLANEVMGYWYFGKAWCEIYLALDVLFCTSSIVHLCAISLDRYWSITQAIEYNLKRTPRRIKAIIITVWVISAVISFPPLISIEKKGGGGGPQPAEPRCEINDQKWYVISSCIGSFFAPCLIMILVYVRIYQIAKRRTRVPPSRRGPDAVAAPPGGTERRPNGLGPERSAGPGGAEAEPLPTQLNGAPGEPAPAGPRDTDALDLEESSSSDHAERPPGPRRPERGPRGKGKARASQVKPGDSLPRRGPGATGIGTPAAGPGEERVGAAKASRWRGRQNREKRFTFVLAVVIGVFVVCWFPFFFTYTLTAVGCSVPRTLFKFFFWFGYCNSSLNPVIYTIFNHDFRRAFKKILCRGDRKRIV
Description: as §1

[10] = tested on: BV-2 cells; assay: Cell viability of BV-2 cells; assay type: cell-based, mouse; conditions: BV2 cells, FIGS. 7, 8B to 8D
Procedure: Cell viability was also measured by a standard assay, e.g., measurement of the release of cytoplasm-resident enzymes in the tissue culture supernatant or media to detect cell loss/lysis/rupture.

[11] = in vitro; conditions: dog, cultured hepatocytes

O=C1CC[C@]2(O)[C@@H]3Cc4ccc(O)c5c4[C@]2(CCN3CC2CC2)[C@@H]1O5 [(+)-naltrexone, reference compound]
adverse effects during observation [1]: No significant adverse effects | effect on pain threshold (von Frey), data not shown ([2]; SC): not effective | glucuronidation of parent compound ([3]; mouse hepatocytes, compared with XT-203): significantly higher glucuronidation | PWT of the ipsilateral hind-paw, 2 hours post-dosing ([4]; (+)-NTX 18 mg/kg IP alone): 0.22 ± 0.050 g | PWT of the ipsilateral hind-paw, 4 hours post-dosing ([4]; (+)-NTX 18 mg/kg IP alone): 0.14 ± 0.32 g | PWT of the ipsilateral hind-paw, 1 hour post-dosing ([4]; (+)-NTX 18 mg/kg IP alone, baseline 0.11±0.015 g): 0.31 ± 0.056 g

COc1ccc2c3c1O[C@@H]1C(F)CCC4[C@H](C2)N(CC2CC2)CC[C@]341 (stereo partly drawn) [XT-203]
pain responses in MOG-treated rats ([5]; 15 mg/kg SC three times/day for 15 days from day 15 post EAE induction): did reverse pain responses | pain response in sham non-MOG rats ([5]; 15 mg/kg SC three times/day for 15 days): no effect | half-life [6]: ~27 min | half-life [7]: 54.3 min | % Inhibition at 10 μM, Sodium channel site 2 ([8]; 10 µM): 64% | % Inhibition at 10 μM, Sodium channel site 2 ([8]; listed as XT 203, 10 µM): 54% | % Inhibition at 10 μM, Adrenergic α2A [9]: 99% | % Inhibition at 10 μM, Adrenergic α2A ([9]; listed as XT 203, 10 µM): 64% | inhibition at 1 µM ([9]; read-out: % inhibition at 1 μM (retest), Adrenergic α2A, 1 μM): < 50% | adverse effects during observation [1]: No significant adverse effects | effect on pain threshold (von Frey), day 1 dosing ([2]; XT-203 19 mg/kg SC 3x per day, FIG. 5A): minimal effect | effect on pain threshold (von Frey), day 5 testing ([2]; XT-203 19 mg/kg SC 3x per day, FIG. 5B): substantial effect | cell viability [10]: good viability | half-life [11]: 24.3 min | Parent compound hepatocyte elimination half-life, Mouse ([3]; cultured mouse hepatocytes): 26.28 min | PWT, 2 hours after dosing ([4]; XT-203 10 mg/kg IP alone): 0.25 ± 0.059 g | PWT, 4 hours after dosing ([4]; XT-203 10 mg/kg IP alone): 0.09 ± 0.012 g | PWT, 1 hour after dosing ([4]; XT-203 10 mg/kg IP alone, 0.11±0.015 g before dosing): 0.32 ± 0.058 g
